From US6933322B2, “Substituted naphthylenes for the treatment of non-insulin dependent diabetes mellitus” (Wyeth, priority 2002, dated 2005) come the findings set out here.

The melting point is the temperature, or range, at which the solid turns liquid.

Molecules are shown by their SMILES.

One series concerns diabetic ob/ob mice. Kind of series: Hypoglycemic effect in diabetic ob/ob mice. It counts as in vivo, mouse. The method, then:
Hypoglycemic Effect in Diabetic OB/OB Mice
Procedure: In each study, male or female ob/ob (C57 B1/6J) mice and their mean litermates (ob/+ or +/+, Jackson Laboratories) ages 2 to 5 months (10 to 65 g) were randomized according to plasma glucose into 4 groups of 10 mice. The mice were housed 5 per cage and were maintained on normal rodent chow with water ad libitum. Mice receive compound daily by gavage (suspended in 0.5 ml of 0.5% methyl cellulose); dissolved in the drinking water; or admixed in the diet. The dose of compounds given ranges from 2.5 to 200 mg/kg body weight/day. Body weight of fed animals was measured at the beginning of each week and doses for the entire week were calculated using this weight and were expressed in terms of the active moiety of the compound. Control mice receive vehicle only. […]
Measurements: The plasma was isolated by centrifugation and the concentration of glucose was measured enzymatically on an Abbott V. P. Analyzer and the plasma concentration of insulin was determined by radioimmunoassay (Heding, 1972)
Analysis of variance followed by Dunnett's Comparison Test (one-tailed) was used to estimate the significant difference between the plasma glucose values from the control group and the individual compound treated groups (CMS SAS Release 5.18). A compound will be considered active if the difference has a p<0.05.

`O=S(=O)(Nc1ccc2c(OCc3ccc(-c4ccccc4)cc3F)cccc2c1)C(F)(F)F` [Example 4, C,C,C-Trifluoro-N-[5-(3-fluoro-biphenyl-4-ylmethoxy)-naphthalen-2-yl]-methanesulfonamide] registered a melting point of 123 to 125 °C. Besides, in the series on diabetic ob/ob mice (10 mg/kg), the “REDUCTION IN PLASMA GLUCOSE Day 1 (6 hr) p.o.” value is given as −28% (10 mg/kg) and the “REDUCTION IN PLASMA GLUCOSE Day 3 (6 hr) p.o.” value is listed as −37% (10 mg/kg).

For `O=S(=O)(Nc1ccc2c(OCc3ccc(-c4cccc(Cl)c4)cc3)cccc2c1)C(F)(F)F` [Example 25, N-[5-(3′-Chloro-biphenyl-4-ylmethoxy)-naphthalen-2-yl]-C,C,C-trifluoromethanesulfonamide], the melting point fell in the range of 170 to 171 °C. In the series with diabetic ob/ob mice (10 mg/kg), the “REDUCTION IN PLASMA GLUCOSE Day 1 (6 hr) p.o.” value is given as −22% (10 mg/kg) and the “REDUCTION IN PLASMA GLUCOSE Day 3 (6 hr) p.o.” value is on record as −24% (10 mg/kg).

In turn, `O=S(=O)(Nc1ccc2c(OCc3noc(C45CC6CC(CC(C6)C4)C5)n3)cccc2c1)C(F)(F)F` [Example 60, N-[5-(5-Adamantan-1-yl-[1,2,4]oxadiazol-3-ylmethoxy)-naphthalen-2-yl]-C,C,C-trifluoro-methanesulfonamide] gave a melting point of 60 to 62 °C.

Regarding `N#Cc1ccc(C2(COc3cccc4cc(NS(=O)(=O)C(F)(F)F)ccc34)N=CNO2)cc1` (stereo not drawn) [Example 61, N-{5-[5-(4-cyano-phenyl)-[1,2,4]-oxadiazol-5-ylmethoxy)-naphthalen-2-yl}-C,C,C-trifluoro-methanesulfonamide], the melting point fell in the range of 184 to 185 °C.

Take `COc1cccc(C2(COc3cccc4cc(NS(=O)(=O)C(F)(F)F)ccc34)N=CNO2)c1` (stereo not drawn) [Example 62, N-{5-[5-(3-methoxy-phenyl)-[1,2,4]-oxadiazol-5-ylmethoxy)-naphthalen-2-yl}-C,C,C-trifluoro-methanesulfonamide]: the melting point lay in the range of 138 to 140 °C.

`COc1ccc(C2(COc3cccc4cc(NS(=O)(=O)C(F)(F)F)ccc34)N=CNO2)cc1` (stereo not drawn) [Example 64, N-{5-[5-(4-methoxy-phenyl)-[1,2,4]-oxadiazol-5-ylmethoxy)-naphthalen-2-yl}-C,C,C-trifluoro-methanesulfonamide] came in with a melting point of 146 to 148 °C.

The molecule `O=S(=O)(Nc1ccc2c(OCc3nc(-c4ccc(F)cc4)no3)cccc2c1)C(F)(F)F` [Example 65, C,C,C-Trifluoro-N-{5-[3-(4-fluoro-phenyl)-[1,2,4]oxadiazol-5-yl-methoxy]-naphthalen-2-yl}-methanesulfonamide] showed a melting point of 131 to 132 °C.

With `O=S(=O)(Nc1ccc2c(OCc3nc(-c4cccc(C(F)(F)F)c4)no3)cccc2c1)C(F)(F)F` [Example 66, C,C,C-Trifluoro-N-{5-[3-(3-trifluoromethyl-phenyl)-[1,2,4]oxadiazol-5-ylmethoxy]-naphthalen-2-yl}-methanesulfonamide], the melting point lay in the range of 155 to 156 °C.

Molecule `NC(=O)Nc1ccc2c(OCc3ccccc3-c3ccccc3)cccc2c1` [Example 74, [5-(Biphenyl-2-ylmethoxy)-naphthalen-2-yl]-urea] returned a melting point of 159 to 161 °C.

For `COc1ccc(-c2ccc(Cl)cc2)cc1COc1cccc2cc(NC(N)=O)ccc12` [Example 76, [5-(4′-Chloro-4-methoxy-biphenyl-3-ylmethoxy)-naphthalen-2-yl]-urea], the melting point is 200 °C (dec.).

Consider `NC(=O)Nc1ccc2c(OCc3ccc(-c4ccc(Cl)cc4)cc3)cccc2c1` [Example 77, [5-(4′-Chloro-biphenyl-4-ylmethoxy)-naphthalen-2-yl]-urea], for which the melting point is 182 °C (dec.).

Molecule `O=S(=O)(Nc1ccc2c(OCc3nc4ccccc4s3)cccc2c1)C(F)(F)F` [Example 78, N-[5-(Benzothiazol-2-ylmethoxy)-naphthalen-2-yl]-C,C,C-trifluoro-methanesulfonamide] returned a melting point of 190 to 192 °C.

Consider `Cc1oc(-c2ccccc2)nc1COc1cccc2cc(NS(=O)(=O)C(F)(F)F)ccc12` [Example 79, N-[5-(5-methyl-2-phenyl-oxazol-4-ylmethoxy)naphthalen-2-yl]C,C,C-trifluoromethanesulfonamide], for which the melting point fell in the range of 192 to 194 °C.

`O=S(=O)(Nc1ccc2c(OCc3coc(-c4ccccc4)n3)cccc2c1)C(F)(F)F` [Example 80, N-[5-(2-phenyl-oxazol-4-ylmethoxy)naphthalen-2-yl]C,C,C-trifluoromethanesulfonamide]: the melting point was in the range of 195 to 197 °C.

As to `Cc1oc(-c2ccc(C(F)(F)F)cc2)nc1COc1cccc2cc(NS(=O)(=O)C(F)(F)F)ccc12` [Example 81], in the series with diabetic ob/ob mice (5 mg/kg), the “REDUCTION IN PLASMA GLUCOSE Day 1 (6 hr) p.o.” value is given as −28% (5 mg/kg) and the “REDUCTION IN PLASMA GLUCOSE Day 3 (6 hr) p.o.” value is reported as −33% (5 mg/kg).

As for `Cc1oc(-c2ccc(F)cc2)nc1COc1cccc2cc(NS(=O)(=O)C(F)(F)F)ccc12` [Example 82, N-{5-[5-methyl-2-(4-fluoro-phenyl)-oxazol-4-ylmethoxy]naphthalen-2-yl}C,C,C-trifluoromethanesulfonamide], the melting point was in the range of 178 to 180 °C.

In turn, `O=S(=O)(Nc1ccc2c(OCc3ccc4ccccc4c3)cccc2c1)C(F)(F)F` [Example 83, N-[5-(Naphthalen-2-ylmethoxy)-naphthalen-2-yl]-C,C,C-trifluoro-methanesulfonamide] registered a melting point of 140 to 142 °C.

In turn, `O=S(=O)(Nc1ccc2c(OCc3coc(-c4ccc(Cl)cc4)n3)cccc2c1)C(F)(F)F` [Example 84, N-{5-[2-(4-Chloro-phenyl)-oxazol-4-ylmethoxy]naphthalen-2-yl}C,C,C-trifluoromethanesulfonamide] displayed a melting point of 198 to 200 °C.

In turn, `CC(C)(C)c1ccc(-c2nc(COc3cccc4cc(NS(=O)(=O)C(F)(F)F)ccc34)co2)cc1` [Example 85, N-{5-[2-(4-tert-Butyl-phenyl)-oxazol-4-ylmethoxy]naphthalen-2-yl}C,C,C-trifluoromethanesulfonamide] displayed a melting point of 165 to 167 °C.

As to `O=S(=O)(Nc1ccc2c(OCc3coc(-c4ccc(Br)cc4)n3)cccc2c1)C(F)(F)F` [Example 86, N-{5-[2-(4-Bromo-phenyl)-oxazol-4-ylmethoxy]naphthalen-2-yl}C,C,C-trifluoromethanesulfonamide], the melting point was in the range of 205 to 207 °C.

`O=S(=O)(Nc1ccc2c(OCc3coc(-c4ccc(C(F)(F)F)cc4)n3)cccc2c1)C(F)(F)F` [Example 87, N-{5-[2-(4-trifluoromethyl-phenyl)-oxazol-4-ylmethoxy]naphthalen-2-yl}C,C,C-trifluoromethanesulfonamide]: the melting point is 205 to 207 °C.

`Cc1ccccc1-c1nc(COc2cccc3cc(NS(=O)(=O)C(F)(F)F)ccc23)co1` [Example 88, N-[5-[2-o-tolyl-oxazol-4-ylmethoxy)naphthalen-2-yl]C,C,C-trifluoromethanesulfonamide] registered a melting point of 127 to 130 °C.
